This is an account of results in article PMC3791872 (Bioscience Reports, 2013).

Data set [1] has as its target T1, Mcm467 (Saccharomyces cerevisiae, UniProt P30665+P38132+P53091).
T1 construct: made in house; host or cells: baculovirus-infected insect cells
The data set is described as follows: Steady-state ATP hydrolysis by Mcm467. The format is biochemical. The note with it: 1 mM compound, 100 nM hexamer.

For data set [2], the system named is T2, Mcm2-7.
T2 construct: made in house; host or cells: baculovirus-infected insect cells
The experiment in a line: Steady-state ATP hydrolysis by Mcm2-7. It counts as biochemical, Saccharomyces cerevisiae. Conditions: 1 mM compound, 100 nM hexamer.

The subject of the next data set is pUC19. The data set is described as follows: DNA intercalation assay (Topo I-relaxed plasmid). The format is biochemical. The note with it: 1 mM inhibitor added after plasmid relaxation (Figure 3C). From the text:
To examine this model, we tested our inhibitors in a standard topoisomerase assay. The rationale of this assay is that intercalating compounds will introduce supercoils into a fully relaxed plasmid. Topo I will remove these introduced supercoils, but after quenching and gel electrophoresis the intercalator will diffuse away and produce a detectable compensatory supercoiling increase.

The target of the next data set is T3, SV40 large TAg (Simian virus 40, UniProt P03070).
T3 construct: made in house
T3 sequence (P03070 whole entry): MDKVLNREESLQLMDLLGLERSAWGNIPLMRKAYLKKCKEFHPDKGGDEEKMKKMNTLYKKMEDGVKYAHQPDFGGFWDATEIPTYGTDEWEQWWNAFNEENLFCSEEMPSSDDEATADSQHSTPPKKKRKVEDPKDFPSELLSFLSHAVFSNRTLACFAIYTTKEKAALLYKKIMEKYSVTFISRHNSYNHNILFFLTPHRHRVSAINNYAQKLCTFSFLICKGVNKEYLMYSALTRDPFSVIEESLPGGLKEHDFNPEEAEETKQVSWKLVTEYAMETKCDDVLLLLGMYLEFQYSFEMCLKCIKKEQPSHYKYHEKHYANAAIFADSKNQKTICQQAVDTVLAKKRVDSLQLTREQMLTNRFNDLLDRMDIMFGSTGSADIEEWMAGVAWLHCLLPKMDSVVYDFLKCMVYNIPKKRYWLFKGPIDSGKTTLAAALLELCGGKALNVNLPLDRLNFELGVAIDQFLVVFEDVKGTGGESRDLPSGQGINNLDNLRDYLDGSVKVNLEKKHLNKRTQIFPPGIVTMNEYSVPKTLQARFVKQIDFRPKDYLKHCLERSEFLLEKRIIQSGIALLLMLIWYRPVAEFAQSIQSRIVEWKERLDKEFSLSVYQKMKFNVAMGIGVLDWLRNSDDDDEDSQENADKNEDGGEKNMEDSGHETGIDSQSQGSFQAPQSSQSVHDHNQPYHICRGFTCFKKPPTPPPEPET
The data set is described as follows: Steady-state ATP hydrolysis by TAg. It counts as biochemical, SV40 (simian virus 40). Conditions: 1 mM compound, 100 nM hexamer.

The test system of data set [3] is T2, Mcm2-7. The data set is described as follows: ssDNA double filter-binding assay, Mcm2-7. The note with it: 1 mM compound, 150 nM helicase. More on the design: species or system Saccharomyces cerevisiae.
Data set [4] concerns the target T1, Mcm467. The experiment in a line: ssDNA double filter-binding assay, Mcm467. The note with it: 1 mM compound, 150 nM helicase.
The target of data set [5] is T1, Mcm467. The data set is described as follows: Mcm467 helicase (DNA unwinding) assay. It counts as biochemical. The note with it: DNA unwinding, 100 nM hexamer, inhibitor preincubation; value (95% CI); read-out: IC50 Mcm467.
In data set [6] the target is T2, Mcm2-7. The data set is described as follows: Mcm2-7 helicase (DNA unwinding) assay. It counts as biochemical, Saccharomyces cerevisiae. Conditions: DNA unwinding, 100 nM hexamer, inhibitor preincubation; value (95% CI); read-out: IC50 Mcm2-7.
The test system of the next data set is Wheat Germ Topo I. The data set is described as follows: Topo I activity inhibition assay. The note with it: 1 mM inhibitor added together with Topo I (Figure 3D).
The target in data set [7] is SV40 large TAg (T-antigen) (Simian virus 40, UniProt P03070). The experiment in a line: biochemical. The arrangement: species or system SV40 (simian virus 40). Conditions: DNA unwinding, 100 nM hexamer, inhibitor preincubation; […]; read-out: IC50 T-antigen.
Chain of SV40 large TAg (T-antigen) (P03070 whole entry, looked up): as the sequence (P03070 whole entry) above
Data set [8] relates to S. cerevisiae ∆erg6 (UPY675). The experiment in a line: Yeast growth inhibition, 96-well assay, ∆erg6 strain. The format is cell-based, Saccharomyces cerevisiae. The note with it: Saccharomyces cerevisiae, read-out: IC50 Yeast.
A short description of a further data set: Solubility in assay. Conditions: helicase assay conditions.
For data set [9], the target named is T4, SsoMcm (Sulfolobus solfataricus Mcm protein) complex (Saccharolobus solfataricus, UniProt Q9UXG1).
T4 sequence (Q9UXG1 1-686): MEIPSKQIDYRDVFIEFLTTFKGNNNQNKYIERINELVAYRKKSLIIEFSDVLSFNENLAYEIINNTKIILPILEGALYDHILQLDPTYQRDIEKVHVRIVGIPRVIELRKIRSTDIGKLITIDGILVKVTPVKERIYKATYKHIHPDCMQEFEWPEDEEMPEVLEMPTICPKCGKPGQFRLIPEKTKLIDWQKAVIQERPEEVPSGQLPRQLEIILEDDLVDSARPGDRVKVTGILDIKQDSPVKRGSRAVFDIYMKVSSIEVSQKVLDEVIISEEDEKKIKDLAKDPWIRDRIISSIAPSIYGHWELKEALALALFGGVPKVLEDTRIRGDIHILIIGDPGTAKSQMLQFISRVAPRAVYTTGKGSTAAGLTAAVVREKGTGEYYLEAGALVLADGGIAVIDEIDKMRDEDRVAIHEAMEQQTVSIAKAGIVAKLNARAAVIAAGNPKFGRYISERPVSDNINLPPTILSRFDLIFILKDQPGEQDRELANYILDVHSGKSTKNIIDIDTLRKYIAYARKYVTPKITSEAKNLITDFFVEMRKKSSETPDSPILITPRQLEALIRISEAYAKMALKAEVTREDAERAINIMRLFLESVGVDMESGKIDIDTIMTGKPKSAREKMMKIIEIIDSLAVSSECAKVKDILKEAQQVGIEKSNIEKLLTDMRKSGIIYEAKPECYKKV
The data set is described as follows: SsoMcm helicase assay. Conditions: 1 mM, 65°C, Figure S3. It counts as biochemical. Here is the method:
Helicase assays were performed essentially as described. Synthetic replication forks were prepared by annealing oligos 233 and 235 [IDT (Coralville), oligo 233 5′(T)40[…]; oligo 235 5′ […](T)40] and then filling in the recessed 3′-end with [α32P]dATP and unlabelled dNTPs using Klenow Fragment. Briefly, reactions ([…]) were performed in 1× helicase assay buffer [20 mM Tris/HCl (pH 7.5), 10 mM MgOAc, 20% (v/v) glycerol, 100 μM EDTA and 5 mM DTT (dithiothreitol)] and contained a final concentration of 1 nM fork substrate, 5 mM ATP, 40 mM creatine phosphate, […] creatine kinase, 33 μg/ml BSA. Reactions containing Mcm2-7 and Mcm467 were supplemented with 200 mM potassium glutamate. Reactions containing SsoMcm were incubated at 65°C, those containing T4 gp41 were incubated for 30 min at 37°C, and all other reactions were incubated at 37°C for 1 h. The products were separated by 10% (w/v) native PAGE, the resulting gels dried and the radioactivity quantified using a Fuji FLA-5100 phosphoimager. […] ATP was separated from ADP by PEI (polyethyleneimine) thin layer chromatography, and the ratio of ATP:ADP was quantified using a Fuji FLA-5100 phosphoimager. […] Protein–ssDNA binding was determined with a double filter-binding assay using an ssDNA probe (oligo 826, 5′[…]) that was 5′-radiolabelled using T4 polynucleotide kinase and [γ32P]ATP [16]. […]

For the next data set, the system named is RPE-hTERT cells. The experiment in a line: Human cell viability, MTS method. It counts as cell-based. The note with it: 48 h, value (95% CI). Here is the method:
Ciproﬂoxacin is an inhibitor of the Mcm2-7 […]
The viability of human cells was assayed using the MTS method
[1]. Brieﬂy, 1 ×10^5 cells of the human non-tumour cell line RPE-hTERT were plated into each well of a 96-well plate and grown in DMEM: F12 containing 10 % (v/v) FBS in 5 % (v/v) CO2 at 37 ◦ C. The next day, the indicated compounds were titrated into media such that the ﬁnal concentration contained 1 % (v/v)
DMSO. As a negative control, media were also prepared that contained 1 % DMSO but lacked compound. After 48 h, the media was removed and replaced with DMEM lacking phenol red but containing Cell Titer 96 Aqueous One Solution Cell Proliferation
Assay (Promega). After 1 h, the A490 nm was measured using a BioRad iMark Microplate Reader (Hercules). Final data reﬂect the average and standard deviation (S.D.) of three replicates at each compound concentration. […]

Read-outs that look alike come from different tables or passages of the source.

T1 sequence (P30665 whole entry): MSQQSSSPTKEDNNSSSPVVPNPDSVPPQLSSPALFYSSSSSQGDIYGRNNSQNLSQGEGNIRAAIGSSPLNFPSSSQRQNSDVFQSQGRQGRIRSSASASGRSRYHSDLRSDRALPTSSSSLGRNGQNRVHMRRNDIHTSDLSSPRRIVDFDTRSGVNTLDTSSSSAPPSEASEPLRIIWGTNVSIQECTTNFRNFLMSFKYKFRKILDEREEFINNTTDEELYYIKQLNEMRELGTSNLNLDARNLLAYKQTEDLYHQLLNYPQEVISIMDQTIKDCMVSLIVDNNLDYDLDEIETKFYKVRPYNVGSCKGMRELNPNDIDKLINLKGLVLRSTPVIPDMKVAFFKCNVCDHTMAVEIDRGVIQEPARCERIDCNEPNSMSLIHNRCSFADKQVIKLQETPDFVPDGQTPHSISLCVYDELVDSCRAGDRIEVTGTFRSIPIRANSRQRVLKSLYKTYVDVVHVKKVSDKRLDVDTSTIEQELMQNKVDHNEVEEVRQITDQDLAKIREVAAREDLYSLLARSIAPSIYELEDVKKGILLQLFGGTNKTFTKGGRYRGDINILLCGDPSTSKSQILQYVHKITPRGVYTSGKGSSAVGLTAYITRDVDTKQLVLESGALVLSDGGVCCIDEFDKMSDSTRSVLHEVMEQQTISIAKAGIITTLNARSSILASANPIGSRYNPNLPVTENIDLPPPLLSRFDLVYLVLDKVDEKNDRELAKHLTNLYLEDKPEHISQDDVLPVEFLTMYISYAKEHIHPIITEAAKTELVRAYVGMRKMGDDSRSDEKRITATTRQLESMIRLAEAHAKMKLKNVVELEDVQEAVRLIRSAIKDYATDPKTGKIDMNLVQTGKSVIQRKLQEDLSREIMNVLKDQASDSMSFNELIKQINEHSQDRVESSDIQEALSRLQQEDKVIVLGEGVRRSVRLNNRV
T1 sequence (P53091 whole entry): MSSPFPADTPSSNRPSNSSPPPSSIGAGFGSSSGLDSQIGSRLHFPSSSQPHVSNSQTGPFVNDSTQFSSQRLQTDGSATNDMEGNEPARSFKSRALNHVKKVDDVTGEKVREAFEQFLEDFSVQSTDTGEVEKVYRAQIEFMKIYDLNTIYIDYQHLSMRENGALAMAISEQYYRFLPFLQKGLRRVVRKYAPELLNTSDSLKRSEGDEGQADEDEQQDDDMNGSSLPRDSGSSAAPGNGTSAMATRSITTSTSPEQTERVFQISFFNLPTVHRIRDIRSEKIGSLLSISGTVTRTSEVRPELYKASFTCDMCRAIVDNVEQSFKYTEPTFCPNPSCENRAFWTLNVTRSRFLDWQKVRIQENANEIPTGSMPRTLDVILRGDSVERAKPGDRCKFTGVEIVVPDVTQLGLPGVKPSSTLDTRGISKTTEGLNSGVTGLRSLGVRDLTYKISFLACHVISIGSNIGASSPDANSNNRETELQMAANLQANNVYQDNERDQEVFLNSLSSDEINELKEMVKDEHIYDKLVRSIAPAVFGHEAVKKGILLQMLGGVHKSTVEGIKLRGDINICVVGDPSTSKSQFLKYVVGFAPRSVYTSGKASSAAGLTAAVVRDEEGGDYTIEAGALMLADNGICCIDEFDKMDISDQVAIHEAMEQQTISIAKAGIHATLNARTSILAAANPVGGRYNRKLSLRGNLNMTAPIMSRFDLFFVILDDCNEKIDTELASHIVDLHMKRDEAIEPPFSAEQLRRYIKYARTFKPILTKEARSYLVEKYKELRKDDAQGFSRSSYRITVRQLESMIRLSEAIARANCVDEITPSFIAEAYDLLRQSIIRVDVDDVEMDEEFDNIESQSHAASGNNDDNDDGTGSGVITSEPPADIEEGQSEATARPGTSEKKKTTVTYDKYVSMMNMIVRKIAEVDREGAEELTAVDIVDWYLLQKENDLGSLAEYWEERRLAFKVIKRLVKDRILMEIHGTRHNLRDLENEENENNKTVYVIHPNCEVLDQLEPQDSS
T1 sequence (P38132 whole entry): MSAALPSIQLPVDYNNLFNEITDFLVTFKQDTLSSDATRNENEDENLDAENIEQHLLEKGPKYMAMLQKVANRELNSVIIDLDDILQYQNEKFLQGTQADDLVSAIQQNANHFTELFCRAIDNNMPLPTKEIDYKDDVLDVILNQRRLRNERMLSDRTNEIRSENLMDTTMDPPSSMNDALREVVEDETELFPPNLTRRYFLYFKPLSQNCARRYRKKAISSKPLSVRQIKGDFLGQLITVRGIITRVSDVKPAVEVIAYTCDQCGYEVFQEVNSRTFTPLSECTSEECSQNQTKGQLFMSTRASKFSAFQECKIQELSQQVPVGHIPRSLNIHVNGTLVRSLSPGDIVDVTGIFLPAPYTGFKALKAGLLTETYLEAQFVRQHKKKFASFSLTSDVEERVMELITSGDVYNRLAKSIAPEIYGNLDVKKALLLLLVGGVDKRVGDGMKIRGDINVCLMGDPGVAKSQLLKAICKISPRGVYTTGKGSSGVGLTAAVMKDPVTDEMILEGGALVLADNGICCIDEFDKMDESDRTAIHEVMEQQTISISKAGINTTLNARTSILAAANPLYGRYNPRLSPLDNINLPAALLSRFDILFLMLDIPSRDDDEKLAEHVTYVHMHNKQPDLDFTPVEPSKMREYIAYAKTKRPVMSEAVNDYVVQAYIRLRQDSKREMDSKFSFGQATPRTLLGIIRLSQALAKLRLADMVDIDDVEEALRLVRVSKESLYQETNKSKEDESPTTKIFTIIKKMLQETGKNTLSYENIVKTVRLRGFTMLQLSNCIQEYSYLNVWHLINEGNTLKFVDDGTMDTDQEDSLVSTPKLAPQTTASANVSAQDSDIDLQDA

The IC50 is the concentration at which inhibition is half-maximal. With `CC1=C(C(=O)OCc2ccccc2)C(c2ccc(-c3ccccc3)cc2)NC(=O)N1CCCCCC(=O)O` (stereo not drawn) [MAL2-11b, reference compound], on Mcm467 [1], the “effect on ATP hydrolysis of Mcm467” value is reported as “completely inhibits”. Further, the “effect on ATP hydrolysis of Mcm2-7” value with Mcm2-7 [2] was “completely inhibits”. For the same molecule, the DNA intercalation result with pUC19 was “little or no intercalation”. On SV40 large TAg, the “effect on ATP hydrolysis of TAg” value is on record as “completely inhibits”. In addition, in the data set with Mcm2-7 [3], the “effect on ssDNA binding of Mcm2-7” value was “inhibit”. For the same molecule, on Mcm467 [4], the “effect on ssDNA binding of Mcm467” value was “inhibit”. The IC50 was determined as 112 µM at Mcm467 [5], 96 µM at Mcm2-7 [6] and 192 µM in data set [7]. In the data set with Wheat Germ Topo I, the “Topo I inhibition” value was “Topo I inhibitor”.
`CCn1cc(C(=O)O)c(=O)c2c(N)c(F)c(N3CCNCC3)c(F)c21` [compound 271327]: at Mcm467 [1], the “effect on ATP hydrolysis of Mcm467” value is recorded as “essentially no inhibition”. The “effect on ATP hydrolysis of Mcm2-7” value with Mcm2-7 [2] is listed as “essentially no inhibition”. For the same molecule, the DNA intercalation entry in the data set on pUC19 is “little or no intercalation”. The 50% inhibitory concentration (IC50) was 700 µM in data set [8] (24 h), 460 µM on Mcm467 [5], 361 µM at Mcm2-7 [6] and over 1000 µM in [7]. In addition, the “effect on ATP hydrolysis of TAg” value at SV40 large TAg is given as “essentially no inhibition”. In addition, the solubility result in the data set “Solubility in assay” is on record as “limited solubility”.
In the case of `CSc1c(N2CCC(C(C)N)C2)ccc2c(=O)c(C(=O)O)cn(C3CC3)c12` (stereo not drawn) [compound 314850], the “effect on ATP hydrolysis of Mcm467” value at Mcm467 [1] is on record as “essentially no inhibition”. Also, in the data set on Mcm2-7 [2], the “effect on ATP hydrolysis of Mcm2-7” value is reported as “essentially no inhibition”. Further, the DNA intercalation entry in the data set on pUC19 is reported as “little or no intercalation”. The IC50 is 520 µM in data set [8] (∆erg6 strain, growth over 24 h, value (95% CI)); 340 µM with RPE-hTERT cells; 500 to 700 µM in the data set with RPE-hTERT cells (Homo sapiens); 707 µM on Mcm467 [5]; 261 µM at Mcm2-7 [6]; over 1000 µM in [7]. For the same molecule, the “inhibition of SsoMcm helicase” value in data set [9] is recorded as “effectively inhibited”. The “effect on ATP hydrolysis of TAg” value at SV40 large TAg was “essentially no inhibition”.
